Experiments:
Assay in all cases: Test of herbicidal activities (greenhouse pot method)
Type in all cases: in vivo
Conditions in all cases: single dose 300 g ai./h, treated before/after germination, 15 days later, greenhouse pot
[1] = test system: Amaranthus retroflexus
In short: (§1)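 Weeds were sown in soil-filled pots at 15–30 °C and treated once by spray tower at 300 g ai./h, either before emergence or post-emergence at the 2-leaf stage, in three replicates with an untreated control. Symptoms were scored 15 days later into five classes from A (≥90%) to E (<50%).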

[2] = test system: Echinochloa crusgalli
In short: as §1

[3] = test system: Setaria viridis
In short: as §1

[4] = test system: Digiatria sanguinalis
In short: as §1

[5] = test system: Chenopodium album
In short: as §1

[6] = test system: Brassica juncea
In short: as §1

With Cc1nn(-c2cc3nc(SCc4cccc(Cl)c4)sc3cc2Cl)c(=O)n1C(F)F [Compound 4] the “Herbicidal activity Amaranthus retroflexus (inhibition level)” value [1] was “B (80 ≦ B < 90%)”, the “Herbicidal activity Echinochloa crusgalli (inhibition level)” value [2] was “C (60 ≦ C < 80%)” and the “Herbicidal activity Setaria viridis (inhibition level)” value [3] was “C (60 ≦ C < 80%)”. The “Herbicidal activity Digiatria sanguinalis (inhibition level)” value [4] was “E (E < 50%)”, the “Herbicidal activity Chenopodium album (inhibition level)” value [5] was “C (60 ≦ C < 80%)” and the “Herbicidal activity Brassica juncea (inhibition level)” value [6] was “E (E < 50%)”.

Cc1ccc(CSc2nc3cc(-n4nc(C)n(C(F)F)c4=O)c(F)cc3s2)cc1 [Compound 15] was tested, and the “Herbicidal activity Amaranthus retroflexus (inhibition level)” value [1] was “A (90 ≦ A ≦ 100%)”, the “Herbicidal activity Echinochloa crusgalli (inhibition level)” value [2] was “B (80 ≦ B < 90%)” and the “Herbicidal activity Setaria viridis (inhibition level)” value [3] was “B (80 ≦ B < 90%)”. The “Herbicidal activity Digiatria sanguinalis (inhibition level)” value [4] was “C (60 ≦ C < 80%)”, the “Herbicidal activity Chenopodium album (inhibition level)” value [5] was “B (80 ≦ B < 90%)” and the “Herbicidal activity Brassica juncea (inhibition level)” value [6] was “A (90 ≦ A ≦ 100%)”.

C=CCS(=O)(=O)c1nc2cc(-n3nc(C)n(C(F)F)c3=O)c(Br)cc2s1 [Compound 60] was tested, and the “Herbicidal activity Amaranthus retroflexus (inhibition level)” value [1] was “A (90 ≦ A ≦ 100%)”, the “Herbicidal activity Echinochloa crusgalli (inhibition level)” value [2] was “B (80 ≦ B < 90%)” and the “Herbicidal activity Setaria viridis (inhibition level)” value [3] was “C (60 ≦ C < 80%)”. The “Herbicidal activity Digiatria sanguinalis (inhibition level)” value [4] was “A (90 ≦ A ≦ 100%)”, the “Herbicidal activity Chenopodium album (inhibition level)” value [5] was “B (80 ≦ B < 90%)” and the “Herbicidal activity Brassica juncea (inhibition level)” value [6] was “A (90 ≦ A ≦ 100%)”.

In the case of Cc1nn(-c2cc3nc(S(=O)(=O)Cc4ccc(F)cc4F)sc3cc2Cl)c(=O)n1C(F)F [Compound 45], the “Herbicidal activity Amaranthus retroflexus (inhibition level)” value [1] was “A (90 ≦ A ≦ 100%)”, the “Herbicidal activity Echinochloa crusgalli (inhibition level)” value [2] was “E (E < 50%)” and the “Herbicidal activity Setaria viridis (inhibition level)” value [3] was “C (60 ≦ C < 80%)”. For the same compound, the “Herbicidal activity Digiatria sanguinalis (inhibition level)” value [4] was “A (90 ≦ A ≦ 100%)”, the “Herbicidal activity Chenopodium album (inhibition level)” value [5] was “B (80 ≦ B < 90%)” and the “Herbicidal activity Brassica juncea (inhibition level)” value [6] was “B (80 ≦ B < 90%)”.

Cc1nn(-c2cc3nc(S(=O)(=O)Cc4ccccc4)sc3cc2F)c(=O)n1C(F)F [Compound 51] was tested, and the “Herbicidal activity Amaranthus retroflexus (inhibition level)” value [1] was “A (90 ≦ A ≦ 100%)”, the “Herbicidal activity Echinochloa crusgalli (inhibition level)” value [2] was “C (60 ≦ C < 80%)” and the “Herbicidal activity Setaria viridis (inhibition level)” value [3] was “A (90 ≦ A ≦ 100%)”. For the same compound, the “Herbicidal activity Digiatria sanguinalis (inhibition level)” value [4] was “A (90 ≦ A ≦ 100%)”, the “Herbicidal activity Chenopodium album (inhibition level)” value [5] was “B (80 ≦ B < 90%)” and the “Herbicidal activity Brassica juncea (inhibition level)” value [6] was “B (80 ≦ B < 90%)”.

In the case of CCOC(=O)C(C)S(=O)(=O)c1nc2cc(-n3nc(C)n(C(F)F)c3=O)c(F)cc2s1 (stereo not drawn) [Compound 61], the “Herbicidal activity Amaranthus retroflexus (inhibition level)” value [1] was “A (90 ≦ A ≦ 100%)”, the “Herbicidal activity Echinochloa crusgalli (inhibition level)” value [2] was “C (60 ≦ C < 80%)” and the “Herbicidal activity Setaria viridis (inhibition level)” value [3] was “C (60 ≦ C < 80%)”. For the same compound, the “Herbicidal activity Digiatria sanguinalis (inhibition level)” value [4] was “A (90 ≦ A ≦ 100%)”, the “Herbicidal activity Chenopodium album (inhibition level)” value [5] was “B (80 ≦ B < 90%)” and the “Herbicidal activity Brassica juncea (inhibition level)” value [6] was “A (90 ≦ A ≦ 100%)”.

In the case of CCSc1nc2cc(-n3nc(C)n(C(F)F)c3=O)c(F)cc2s1 [Compound 84], the “Herbicidal activity Amaranthus retroflexus (inhibition level)” value [1] was “B (80 ≦ B < 90%)”, the “Herbicidal activity Echinochloa crusgalli (inhibition level)” value [2] was “A (90 ≦ A ≦ 100%)” and the “Herbicidal activity Setaria viridis (inhibition level)” value [3] was “B (80 ≦ B < 90%)”. For the same compound, the “Herbicidal activity Digiatria sanguinalis (inhibition level)” value [4] was “A (90 ≦ A ≦ 100%)”, the “Herbicidal activity Chenopodium album (inhibition level)” value [5] was “A (90 ≦ A ≦ 100%)” and the “Herbicidal activity Brassica juncea (inhibition level)” value [6] was “C (60 ≦ C < 80%)”.

With Cc1nn(-c2cc3nc(SCc4ccccc4Cl)sc3cc2Cl)c(=O)n1C(F)F [Compound 3] the “Herbicidal activity Amaranthus retroflexus (inhibition level)” value [1] was “B (80 ≦ B < 90%)”, the “Herbicidal activity Echinochloa crusgalli (inhibition level)” value [2] was “E (E < 50%)” and the “Herbicidal activity Setaria viridis (inhibition level)” value [3] was “E (E < 50%)”. For the same compound, the “Herbicidal activity Digiatria sanguinalis (inhibition level)” value [4] was “C (60 ≦ C < 80%)”, the “Herbicidal activity Chenopodium album (inhibition level)” value [5] was “E (E < 50%)” and the “Herbicidal activity Brassica juncea (inhibition level)” value [6] was “C (60 ≦ C < 80%)”.

In the case of Cc1nn(-c2cc3nc(SCc4ccc(F)cc4)sc3cc2Br)c(=O)n1C(F)F [Compound 27], the “Herbicidal activity Amaranthus retroflexus (inhibition level)” value [1] was “D (50 ≦ D < 60%)”, the “Herbicidal activity Echinochloa crusgalli (inhibition level)” value [2] was “B (80 ≦ B < 90%)” and the “Herbicidal activity Setaria viridis (inhibition level)” value [3] was “B (80 ≦ B < 90%)”. The “Herbicidal activity Digiatria sanguinalis (inhibition level)” value [4] was “D (50 ≦ D < 60%)”, the “Herbicidal activity Chenopodium album (inhibition level)” value [5] was “C (60 ≦ C < 80%)” and the “Herbicidal activity Brassica juncea (inhibition level)” value [6] was “A (90 ≦ A ≦ 100%)”.

With Cc1nn(-c2cc3nc(SCn4cnc5ccccc5c4=O)sc3cc2F)c(=O)n1C(F)F [Compound 74] the “Herbicidal activity Amaranthus retroflexus (inhibition level)” value [1] was “B (80 ≦ B < 90%)”, the “Herbicidal activity Echinochloa crusgalli (inhibition level)” value [2] was “A (90 ≦ A ≦ 100%)” and the “Herbicidal activity Setaria viridis (inhibition level)” value [3] was “A (90 ≦ A ≦ 100%)”. For the same compound, the “Herbicidal activity Digiatria sanguinalis (inhibition level)” value [4] was “B (80 ≦ B < 90%)”, the “Herbicidal activity Chenopodium album (inhibition level)” value [5] was “C (60 ≦ C < 80%)” and the “Herbicidal activity Brassica juncea (inhibition level)” value [6] was “B (80 ≦ B < 90%)”.

In the case of Cc1ccccc1C[S+]([O-])c1nc2cc(-n3nc(C)n(C(F)F)c3=O)c(F)cc2s1 (stereo not drawn) [Compound 104], the “Herbicidal activity Amaranthus retroflexus (inhibition level)” value [1] was “A (90 ≦ A ≦ 100%)”, the “Herbicidal activity Echinochloa crusgalli (inhibition level)” value [2] was “C (60 ≦ C < 80%)” and the “Herbicidal activity Setaria viridis (inhibition level)” value [3] was “C (60 ≦ C < 80%)”. For the same compound, the “Herbicidal activity Digiatria sanguinalis (inhibition level)” value [4] was “C (60 ≦ C < 80%)”, the “Herbicidal activity Chenopodium album (inhibition level)” value [5] was “A (90 ≦ A ≦ 100%)” and the “Herbicidal activity Brassica juncea (inhibition level)” value [6] was “A (90 ≦ A ≦ 100%)”.

Cc1nn(-c2cc3nc(SCc4ccc(F)cc4)sc3cc2F)c(=O)n1C(F)F [Compound 20] was tested, and the “Herbicidal activity Amaranthus retroflexus (inhibition level)” value [1] was “A (90 ≦ A ≦ 100%)”, the “Herbicidal activity Echinochloa crusgalli (inhibition level)” value [2] was “C (60 ≦ C < 80%)” and the “Herbicidal activity Setaria viridis (inhibition level)” value [3] was “B (80 ≦ B < 90%)”. For the same compound, the “Herbicidal activity Digiatria sanguinalis (inhibition level)” value [4] was “C (60 ≦ C < 80%)”, the “Herbicidal activity Chenopodium album (inhibition level)” value [5] was “B (80 ≦ B < 90%)” and the “Herbicidal activity Brassica juncea (inhibition level)” value [6] was “B (80 ≦ B < 90%)”.

In the case of Cc1nn(-c2cc3nc(SCc4ccccc4F)sc3cc2F)c(=O)n1C(F)F [Compound 18], the “Herbicidal activity Amaranthus retroflexus (inhibition level)” value [1] was “A (90 ≦ A ≦ 100%)”, the “Herbicidal activity Echinochloa crusgalli (inhibition level)” value [2] was “C (60 ≦ C < 80%)” and the “Herbicidal activity Setaria viridis (inhibition level)” value [3] was “B (80 ≦ B < 90%)”. For the same compound, the “Herbicidal activity Digiatria sanguinalis (inhibition level)” value [4] was “A (90 ≦ A ≦ 100%)”, the “Herbicidal activity Chenopodium album (inhibition level)” value [5] was “C (60 ≦ C < 80%)” and the “Herbicidal activity Brassica juncea (inhibition level)” value [6] was “B (80 ≦ B < 90%)”.

For Cc1ccccc1CS(=O)(=O)c1nc2cc(-n3nc(C)n(C(F)F)c3=O)c(F)cc2s1 [Compound 43], the “Herbicidal activity Amaranthus retroflexus (inhibition level)” value [1] was “A (90 ≦ A ≦ 100%)”, the “Herbicidal activity Echinochloa crusgalli (inhibition level)” value [2] was “D (50 ≦ D < 60%)” and the “Herbicidal activity Setaria viridis (inhibition level)” value [3] was “C (60 ≦ C < 80%)”. The “Herbicidal activity Digiatria sanguinalis (inhibition level)” value [4] was “D (50 ≦ D < 60%)”, the “Herbicidal activity Chenopodium album (inhibition level)” value [5] was “C (60 ≦ C < 80%)” and the “Herbicidal activity Brassica juncea (inhibition level)” value [6] was “C (60 ≦ C < 80%)”.

Cc1nn(-c2cc3nc(S(=O)(=O)Cc4cccc(Cl)c4)sc3cc2F)c(=O)n1C(F)F [Compound 53] was tested, and the “Herbicidal activity Amaranthus retroflexus (inhibition level)” value [1] was “B (80 ≦ B < 90%)”, the “Herbicidal activity Echinochloa crusgalli (inhibition level)” value [2] was “C (60 ≦ C < 80%)” and the “Herbicidal activity Setaria viridis (inhibition level)” value [3] was “D (50 ≦ D < 60%)”. The “Herbicidal activity Digiatria sanguinalis (inhibition level)” value [4] was “B (80 ≦ B < 90%)”, the “Herbicidal activity Chenopodium album (inhibition level)” value [5] was “B (80 ≦ B < 90%)” and the “Herbicidal activity Brassica juncea (inhibition level)” value [6] was “A (90 ≦ A ≦ 100%)”.

For CCCCCC[S+]([O-])c1nc2cc(-n3nc(C)n(C(F)F)c3=O)c(F)cc2s1 (stereo not drawn) [Compound 112], the “Herbicidal activity Amaranthus retroflexus (inhibition level)” value [1] was “B (80 ≦ B < 90%)”, the “Herbicidal activity Echinochloa crusgalli (inhibition level)” value [2] was “B (80 ≦ B < 90%)” and the “Herbicidal activity Setaria viridis (inhibition level)” value [3] was “B (80 ≦ B < 90%)”. The “Herbicidal activity Digiatria sanguinalis (inhibition level)” value [4] was “A (90 ≦ A ≦ 100%)”, the “Herbicidal activity Chenopodium album (inhibition level)” value [5] was “B (80 ≦ B < 90%)” and the “Herbicidal activity Brassica juncea (inhibition level)” value [6] was “C (60 ≦ C < 80%)”.

From US7666890B2, “Synthesis and herbicidal activity of 1- (2-substituted benzo[d]thiazol-5-yl)-1H-1,2,4-triazol-5(4H)-one derivatives” (Huazhong Normal University, priority 2007, dated 2010)
